Experimental data published in article PMC11953117 (Cancer Chemotherapy and Pharmacology, 2025).
Read-outs that look alike come from different tables or passages of the source.

Experiments:
[1] = Capivasertib exposure metrics at steady state projected with PopPK model, patients with solid tumors; format: in vivo; conditions: human, plasma, oral; for AUC: read-out: AUCss(0–12 h); for concentration at 12 h: read-out: Cmin
Description: Study 1 (NCT01226316) was a phase 1 open-label multipart study. […] The duration of the treatment cycles was 21 days. […] [18]. […] [18, 25, 39].
Study 4 (NCT01353781) was a phase 1 dose-escalation study in Japanese patients with advanced solid malignancies.
(§1) The exposure–response analyses were conducted using a subset of patients from the PopPK analysis where capivasertib was used as monotherapy. […] As different schedules were assessed between and within studies, the exposure metrics were derived for the last dose of the last dosing day in the second week of treatment (i.e. on days 14, 11, and 9 for the continuous, [4/3] and [2/5] schedules, respectively), to ensure SS conditions, using the planned dose. […] The relative dose intensity (RDI) was calculated as the percentage of the average weekly dose relative to the PWD to examine the tolerability of capivasertib monotherapy at the given dosing schedules.

[2] = Relative dose intensity (RDI) of capivasertib monotherapy; format: in vivo, human
Description: as §1

[3] = Exposure–response analysis (logistic regression) of safety endpoints; format: in vivo, human
Description: as §1
Logistic regression models were used to establish associations between the probability of the safety endpoints with the exposure metrics at a statistically significant level of 0.005.

[4] = cited from earlier work
[5] = design: method as in PMID 29066505, PMID 26931343; conditions: monotherapy, cited from earlier work; for recommended phase 2 dose: based on DLTs
AKT = system: AKT; design: method as in PMID 29066505; conditions: 480 mg BID [4/3] versus 320 mg continuous dosing; cited from earlier work
[6] = 640 mg, Study 1, [2/5] BID, 640 mg, PWD 2560 mg, N=8, median (range)
[7] = 640 mg, Study 1, [2/5] BID, PWD 2560 mg, N=8, median (range)
[8] = 640 mg, Study 1, [4/3] BID, 640 mg, PWD 5120 mg, N=10, median (range)
[9] = 640 mg, Study 1, [4/3] BID, PWD 5120 mg, N=10, median (range)
[10] = 640 mg, Study 4 (Japanese patients), [2/5] BID, 640 mg, PWD 2560 mg, N=6, median (range)
[11] = 640 mg, Study 4 (Japanese patients), [2/5] BID, PWD 2560 mg, N=6, median (range)
[12] = 800 mg, Study 1, [2/5] BID, 800 mg, PWD 3200 mg, N=14, median (range)
[13] = 800 mg, Study 1, [2/5] BID, PWD 3200 mg, N=14, median (range)
[14] = univariate logistic regression, significance level 0.005

NC1(C(=O)N[C@@H](CCO)c2ccc(Cl)cc2)CCN(c2ncnc3[nH]ccc23)CC1 [capivasertib, 4-amino-N-[(1S)-1-(4-chlorophenyl)-3-hydroxypropyl]-1-(7H-pyrrolo[2,3-d]pyrimidin– 4-yl)piperidine-4-carboxamide]
Cmax ([1]; 600 mg, Study 1, Continuous BID, PWD 8400 mg, N=2, median (range)): 2520 ng/mL | AUC [1, 6]: 15000 ng·h/mL | concentration at 12 h [1, 6]: 570 ng/mL | AUC at 1 week [1, 7]: 59800 ng·h/mL | Cmax [1, 7]: 2080 ng/mL | AUC [1, 8]: 15900 ng·h/mL | concentration at 12 h [1, 8]: 550 ng/mL | AUC at 1 week [1, 9]: 127000 ng·h/mL | Cmax [1, 9]: 2430 ng/mL | AUC [1, 10]: 15200 ng·h/mL | concentration at 12 h [1, 10]: 570 ng/mL | AUC at 1 week [1, 11]: 61000 ng·h/mL | Cmax [1, 11]: 2480 ng/mL | AUC [1, 12]: 26400 ng·h/mL | concentration at 12 h [1, 12]: 1080 ng/mL | AUC at 1 week [1, 13]: 106000 ng·h/mL | Cmax [1, 13]: 3930 ng/mL | RDI ([2]; OAK, [4/3] BID, 480 mg, PWD 3840 mg, N=30, median (range)): 100 (45.6–115.4) % | RDI ([2]; Study 1, Continuous BID, 80 mg, PWD 1120 mg, N=5, median (range)): 100.0 (95.9–100.6) % | RDI ([2]; Study 1, Continuous BID, 160 mg, PWD 2240 mg, N=5, median (range)): 97.6 (83.5–102.3) % | RDI ([2]; Study 1, Continuous BID, 240 mg, PWD 3360 mg, N=6, median (range)): 100.3 (98.8–100.9) % | RDI ([2]; Study 1, Continuous BID, 320 mg, PWD 4480 mg, N=12, median (range)): 98.1 (37.2–102.4) % | RDI ([2]; Study 1, Continuous BID, 400 mg, PWD 5600 mg, N=11, median (range)): 80.3 (55.4–102.1) % | RDI ([2]; Study 1, Continuous BID, 480 mg, PWD 6720 mg, N=6, median (range)): 50.2 (45.3–83.3) % | RDI ([2]; Study 1, Continuous BID, 600 mg, PWD 8400 mg, N=2, median (range)): 103.1 (100–106.2) % | RDI ([2]; Study 1, [2/5] BID, 640 mg, PWD 2560 mg, N=8, median (range)): 94.0 (80.9–109.1) % | RDI ([2]; Study 1, [2/5] BID, 800 mg, PWD 3200 mg, N=14, median (range)): 101.1 (42.5–133.3) % | RDI ([2]; Study 1, [4/3] BID, 480 mg, PWD 3840 mg, N=127, median (range)): 97.9 (26.4–138.9) % | RDI ([2]; Study 1, [4/3] BID, 640 mg, PWD 5120 mg, N=10, median (range)): 100.0 (70.5–122.2) % | RDI ([2]; Study 4 (Japanese patients), Continuous BID, 80 mg, PWD 1120 mg, N=3, median (range)): 100.0 (88.7–102.3) % | RDI ([2]; Study 4 (Japanese patients), Continuous BID, 240 mg, PWD 3360 mg, N=7, median (range)): 100.0 (41.9–106.7) % | RDI ([2]; Study 4 (Japanese patients), Continuous BID, 320 mg, PWD 4480 mg, N=6, median (range)): 91.5 (59.3–101.1) % | RDI ([2]; Study 4 (Japanese patients), Continuous BID, 400 mg, PWD 5600 mg, N=5, median (range)): 72.1 (51.4–85.7) % | RDI ([2]; Study 4 (Japanese patients), [2/5] BID, 640 mg, PWD 2560 mg, N=6, median (range)): 111.2 (100–119) % | RDI ([2]; Study 4 (Japanese patients), [4/3] BID, 360 mg, PWD 2880 mg, N=8, median (range)): 107.9 (91.4–112) % | RDI ([2]; Study 4 (Japanese patients), [4/3] BID, 480 mg, PWD 3840 mg, N=6, median (range)): 107.9 (79.1–108.6) % | RDI ([2]; [4/3] and [2/5] schedules at all dose levels): > 90% | RDI ([2]; continuous schedule, 400 and 480 mg doses): ≤ 80% | probability of hyperglycemia AE grade ≥ 3 and increased blood glucose > 13.9 mmol/L ([3]; [2/5] 640 mg compared with [4/3] 480 mg): higher probability | probabilities of hyperglycemia AE grade ≥ 3 and increased blood glucose > 13.9 mmol/L: effect of schedule ([3]; at a given dose): did not depend on the schedule | probability of AEDD, AEDM and diarrhea AE grade ≥ 2: effect of schedule ([3]; at a given dose, intermittent schedules compared with continuous, statistically significant): lower probability of events | probability of hyperglycemia AE grade ≥ 3 and increased blood glucose > 13.9 mmol/L: effect of schedule ([3]; at a given weekly dose, intermittent schedules compared with continuous, statistically significant): higher probability of events | probability of rash AE grade ≥ 2, AEDD, AEDM, AE grade ≥ 3, SAE and diarrhea AE grade ≥ 2 ([3]; continuous 320 mg (4480 mg weekly) compared with [4/3] 480 mg (3840 mg weekly)): higher | relationships between exposure metrics and AE grade ≥ 1 ([3]; logistic regression, significance level 0.005): No significant relationships | exposure metrics with significant relationship to AE grade ≥ 3 [3, 14]: dose, PWD, AUC, AUCPWD, Cmax, and Cmin | exposure metrics with significant relationship to AE leading to dose discontinuation [3, 14]: PWD | exposure metrics with significant relationship to AE leading to dose modification [3, 14]: PWD, AUC, AUCPWD, Cmax, and Cmin | exposure metrics with significant relationship to SAE [3, 14]: dose, PWD, AUC, AUCPWD, Cmax, and Cmin | exposure metrics with significant relationship to diarrhea AE grade ≥ 2 [3, 14]: PWD, AUCPWD | exposure metrics with significant relationship to hyperglycemia AE grade ≥ 3 [3, 14]: dose, AUC, AUCPWD, Cmax, and Cmin | exposure metrics with significant relationship to increased blood glucose > 13.9 mmol/L [3, 14]: dose, AUC, AUCPWD, Cmax, and Cmin | exposure metrics with significant relationship to rash AE grade ≥ 2 [3, 14]: PWD | dose proportionality of plasma exposure ([4]; dose range of 80–480 mg): approximately dose proportional | half-life ([4]; patients): approximately 8 h | recommended phase 2 dose ([5]; [2/5] schedule): 640 mg BID | recommended phase 2 dose ([5]; [4/3] schedule): 480 mg BID | recommended phase 2 dose ([5]; continuous schedule): 320 mg BID | dose-limiting toxicities (DLTs) ([5]; first-in-human study): diarrhea, rash, and hyperglycemia | target engagement in tumor tissue (AKT): greater target engagement
